Test results: publication PMC7500466, “Inhibition of JNK-Mediated Autophagy Promotes Proscillaridin A- Induced Apoptosis via ROS Generation, Intracellular Ca^+2 Oscillation and Inhibiting STAT3 Signaling in Breast Cancer Cells” (Frontiers in Pharmacology, 2020)

Molecular target: T1, STAT3 (signal transducer and activator of transcription 3) (Homo sapiens, UniProt P40763)
T1 construct: Recombinant human STAT3 protein
Experiment: SPR, STAT3 immobilized on C5 sensor chip, PSD-A […]
Type: binding

T1 sequence (P40763 2-770): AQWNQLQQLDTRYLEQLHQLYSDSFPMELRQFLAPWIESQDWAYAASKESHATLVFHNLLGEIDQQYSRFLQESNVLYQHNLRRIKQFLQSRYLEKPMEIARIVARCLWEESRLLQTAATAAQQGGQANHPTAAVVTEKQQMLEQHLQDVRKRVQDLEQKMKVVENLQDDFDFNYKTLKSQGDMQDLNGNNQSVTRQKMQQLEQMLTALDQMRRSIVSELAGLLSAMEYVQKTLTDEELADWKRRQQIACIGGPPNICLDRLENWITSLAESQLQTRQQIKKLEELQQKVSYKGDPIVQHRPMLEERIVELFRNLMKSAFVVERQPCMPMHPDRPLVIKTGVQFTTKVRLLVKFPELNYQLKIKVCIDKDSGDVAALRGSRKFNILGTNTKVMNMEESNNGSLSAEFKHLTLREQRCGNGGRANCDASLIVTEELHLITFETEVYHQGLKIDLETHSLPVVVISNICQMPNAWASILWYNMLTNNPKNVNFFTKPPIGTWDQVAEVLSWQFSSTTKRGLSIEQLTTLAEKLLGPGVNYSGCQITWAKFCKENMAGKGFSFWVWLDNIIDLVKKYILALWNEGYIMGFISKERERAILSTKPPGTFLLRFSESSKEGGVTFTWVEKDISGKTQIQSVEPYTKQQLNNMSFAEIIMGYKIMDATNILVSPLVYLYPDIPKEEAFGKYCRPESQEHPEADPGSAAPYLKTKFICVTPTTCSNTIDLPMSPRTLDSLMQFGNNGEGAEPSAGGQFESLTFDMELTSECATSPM

SMILES: C[C@@H]1O[C@@H](O[C@@H]2C=C3CC[C@@H]4[C@H](CC[C@]5(C)[C@@H](c6ccc(=O)oc6)CC[C@]45O)[C@@]3(C)CC2)[C@H](O)[C@H](O)[C@H]1O [PSD-A, Proscillaridin A]
- Kd: ~160 nM
